US11167133B2, “Intratumoral modulation therapy” (LONDON HEALTH SCIENCES CENTRE RESEARCH INC., priority 2015, dated 2021)

Columns and labels:
[1] = system: primary patient GBM cells; assay: Annexin V / propidium iodide flow cytometry of apoptotic and dead cells; format: cell-based, human; conditions: 72 h; for combined fraction of apoptotic (annexin+) and dead (annexin+ and PI+) GBM cells: mean±SD, cells from 3 patients
Description: (§1) This study was approved by the Research Ethics Board at the University of Western Ontario (Approval #17290). GBM specimens were obtained at the time of operative resection and placed immediately into phosphate-buffered saline (PBS) with 0.5% fetal bovine serum (FBS; Life Technologies, Burlington, ON, Canada). The tissue was washed, digested and filtered through a 100-μm cell strainer. Samples were then centrifuged and resuspended in Dulbecco's modified Eagle's medium (DMEM; Wisent Bioproducts, St. Bruno, PQ, Canada) supplemented with 10% FBS, 1% non-essential amino acids and 1% penicillin/streptomycin (Life Technologies) before plating to a 35-mm dish for 30 min to allow blood cells to separate. The upper cell suspension was then transferred to two wells of a 24-well plate, freshly pre-coated with 10 μg/ml poly-L-lysine (Trevigen Inc., Gaithersburg, Md., USA) and incubated at 37° C. with 5% CO2. Cultures were passaged at approximately 80% confluence and split 1:2 using 0.25% trypsin with 0.53 mM ethylenediaminetetraacetic acid (EDTA; Wisent). The medium was changed twice per week. All assays were conducted using GBM cells from cultures at passages 4 through 12.
GBM cells (2×10^5 cells in 2 ml maintenance DMEM) were transferred to the 35 mm wells in standard 6-well plates and allowed to grow to ˜70% confluence before treatment. A clinical grade, platinum-based reference strip electrode (AD-Tech, Racine, Wis., USA) around the periphery and a stimulating electrode (Medtronic Ltd., Brampton, ON, Canada) in the centre of the well. The electrodes were connected to a waveform generator set to produce monophasic, square-wave pulses of 4 volts, with pulse width of 90 μsec and frequency of 130 Hz. This setting is in the range of that commonly used in clinical neuromodulation treatment for symptoms of movement disorders, such as Parkinson's disease (11). Control wells (i.e. sham-treated) were fitted with electrodes but no current was delivered. Treatment durations between 24-96 h were used to allow adequate time for antitumor effect while avoiding the need for medium change once IMT was initiated. Thus, all intact GBM cells, adherent and floating, contributed to the viability measures described below. GBM cells treated with chemotherapy were plated with DMEM containing temozolomide (50 μM; Sigma Aldrich) in 35 mm wells fitted with the IMT apparatus and received 72 h of concomitant IMT or sham conditions. The 50 μM temozolomide concentration reflects clinically relevant levels corresponding to the in vivo plasma concentration of 150 mg/m2 in the adjuvant phase of GBM treatment (24).
An Annexin V Apoptosis Detection Kit with propidium iodide (PI; BioLegend, San Diego, Calif., USA) was used for identification of apoptotic and dead cells, as per the manufacturer's instructions. Cell fractions were analyzed using a Becton Dickinson LSR II SORP flow cytometer running FACSDiva software (BD Biosciences, Mississauga, ON, Canada). Cells were first gated on forward scatter (FSC-) versus side scatter (SSC-) characteristics before excluding doublets using consecutive gating FSC-Area versus FSC-Width and SSC-Area versus SSC-Width plots. The populations of annexin V+/PI−, annexin V+/PI+, annexin V−/PI+ and annexin V−/PI− were then calculated with quadrant gates. Approximately 30,000 single cells were acquired per sample at a maximum event rate of 5,000 events per second. Data were analyzed using FlowJo v 9.6.3 (TreeStar, Inc., Ashland, Oreg., USA).

[2] = system: primary patient GBM cells; assay: MTT cell viability assay; format: cell-based, human; conditions: 72 h, mean±SD, 3 patients
Description: as §1, with “Cultures were passaged at approximately 80% confluence and split 1:2 using 0.25% trypsin with 0.53 mM ethylenediaminetetraacetic acid (EDTA; Wisent). The medium was changed twice per week. All assays were conducted using GBM cells from cultures at passages 4 through 12.” left out
Primary human patient GBM cells (1×10^5 cells in 2 ml maintenance DMEM) were seeded into one 35 mm well equipped with the IMT system and allowed to grow to ˜70% confluence. […] In the IMT-siRNA conditions, IMT was initiated at the time of transfection and maintained for the entire 48 h, after which the extent of target knockdown and GBM cell viability were assessed.
Cell viability was evaluated using the 3-(4,5-dimethylthiazol-2-yl)-2,5-diphenyltetrazolium (MTT) spectral analysis (Sigma Aldrich). […]

[3] = temozolomide 50 μM combined with IMT (4 V, 130 Hz)
[4] = temozolomide 50 μM, with concomitant IMT (4 V, 130 Hz), representative scatterplot
[5] = temozolomide 50 μM, without IMT, representative scatterplot

## Cn1nnc2c(C(N)=O)ncn2c1=O [temozolomide]
[1]; single-modality temozolomide 50 μM
  combined fraction of apoptotic (annexin+) and dead (annexin+ and PI+) GBM cells: 16.9±7.4%
[1]; [3]
  combined fraction of apoptotic (annexin+) and dead (annexin+ and PI+) GBM cells: 52.4±21.8%
[1]; [4]
  dead cells (annexin and PI-positive), FIG. 4 scatterplot: 16%
  live cells, FIG. 4 scatterplot: 25.2%
[1]; [5]
  apoptotic cells (annexin-positive), FIG. 4 scatterplot: 14.1%
  dead cells (annexin and PI-positive), FIG. 4 scatterplot: 9.4%
  live cells, FIG. 4 scatterplot: 76.1%
[2]; Homo sapiens, temozolomide 50 μM alone, read-out: viability relative to untreated cells (MTT)
  viability at 50 µM: 69.7 ± 11.8%
[2]; [3]
  viability relative to untreated cells (MTT): 29.1±3.2%
